The source of these data is patent US7115642B2, “Substituted diphenyl isoxazoles, pyrazoles and oxadiazoles useful for treating HCV infection” (priority 2003, dated 2006).

This test deals with HCV replicon (5-2 Luc replicon-comprising cells). Nature of the test: HCV replicon assay (luciferase). It counts as cell-based, Hepatitis C virus. The conditions noted are these: 5-2 Luc replicon cells, luciferase readout; read-out: Replicon IC50. An excerpt: In one embodiment, the inhibitory activity of the compounds can be confirmed in a replicon assay that assesses the ability of a test compound to block or inhibit HCV replication in replicon cells. One example of a suitable replicon assay is the liver cell-line Huh 7-based replicon assay described in Lohmann et al., 1999, Science 285:110–113. A specific example of this replicon assay which utilizes luciferase translation is provided in the Examples Section. In one embodiment of this assay, the amount of test compound that yields a 50% reduction in translation as compared to a control cell (IC50) may be determined.
The inhibitory activity of certain exemplary compounds of the invention was confirmed using an HCV replicon assay. The HCV replicon can include such features as the HCV 5′ untranslated region including the HCV IRES, the HCV 3′ untranslated region, selected HCV genes encoding HCV polypeptides, selectable markers, and a reporter gene such as luciferase, GFP, etc. In the assay, actively dividing 5-2 Luc replicon-comprising cells (obtained from Ralf Bartenschlager; see Lohmann et al., 1999, Science 285:110–113) were seeded at a density of between about 5,000 and 7,500 cells/well onto 96 well plates (about 90 μl of cells per well) and incubated at 37° C. and 5% CO2 for 24 hours. Then, the test compound (in a volume of about 10 μl) was added to the wells at various concentrations and the cells were incubated for an additional 24 hours before luciferase assay. Briefly, the Bright-Glo reagent was diluted 1:1 with PBS and 100 μl of diluted reagent was added to each well. After 5 min of incubation at room temperature, luciferin emission was quantified with a luminometer. In this assay, the amount of test compound that yielded a 50% reduction in luciferase activity (IC50) was determined.
In TABLE 1, a value of “+” indicates an IC50 of 10 μM or less in the specified assay; a value of “−” indicates an IC50 of greater than 10 μM in the specified assay.

The structures appear in SMILES notation.

Broadly, the IC50 is the concentration that inhibits the measured activity by half. With `O=C(Nc1cccc(-c2cc(-c3c(Cl)cccc3N3CCC(OC(=O)C(Cl)Cl)CC3)no2)c1)C(Cl)Cl` [Compound 527], the IC50 was under 10 µM.

`O=C(Nc1cccc(-c2cc(-c3c(Cl)cccc3N3CCC(O)CC3)no2)c1)C(Cl)Cl` [Compound 528]: the IC50 was under 10 µM.

As for `CS(=O)(=O)N1CCN(c2cccc(Cl)c2-c2cc(-c3cccc(NC(=O)C(Cl)Cl)c3)on2)CC1` [Compound 529], the IC50 is under 10 µM.

On to `O=C(Nc1cccc(-c2cc(-c3c(Cl)cccc3N3CCN(C(=O)c4ccno4)CC3)no2)c1)C(Cl)Cl` [Compound 530], for which the IC50 was under 10 µM.

As for `CN(C)C(=O)N1CCN(c2cccc(Cl)c2-c2cc(-c3cccc(NC(=O)C(Cl)Cl)c3)on2)CC1` [Compound 531], the IC50 was under 10 µM.

In the case of `CC(C)(C)OC(=O)NC(Cc1ccccc1)C(=O)N1CCN(c2cccc(Cl)c2-c2cc(-c3cccc(NC(=O)C(Cl)Cl)c3)on2)CC1` (stereo not shown) [Compound 532], the IC50 was under 10 µM.

As for `O=C(Nc1cccc(-c2cc(-c3c(Cl)cccc3N3CCN(C(=O)Cc4ccccc4)CC3)no2)c1)C(Cl)Cl` [Compound 533], the IC50 is under 10 µM.

As for `O=C(Nc1cccc(-c2cc(-c3c(Cl)cccc3N3CCN(C(=O)Nc4ccccc4)CC3)no2)c1)C(Cl)Cl` [Compound 534], the 50% inhibitory concentration (IC50) is under 10 µM.

On to `O=C(Nc1cccc(-c2cc(-c3c(Cl)cccc3N3CCN(C(=O)C4CC4)CC3)no2)c1)C(Cl)Cl` [Compound 535], for which the IC50 was under 10 µM.

`O=C(Nc1cccc(-c2cc(-c3c(Cl)cccc3N3CCN(c4ccc(C(F)(F)F)cn4)CC3)no2)c1)C(Cl)Cl` [Compound 536]: the IC50 was under 10 µM.

For `O=C(Nc1cccc(-c2cc(-c3c(Cl)cccc3N3CCN(c4ncccc4C(F)(F)F)CC3)no2)c1)C(Cl)Cl` [Compound 538], the IC50 is under 10 µM.

As for `O=C(Nc1cccc(-c2cc(-c3c(Cl)cccc3N3CCN(C(=O)c4c[nH]cn4)CC3)no2)c1)C(Cl)Cl` [Compound 539], the IC50 is under 10 µM.

In the case of `CN(C)S(=O)(=O)N1CCN(c2cccc(Cl)c2-c2cc(-c3cccc(NC(=O)C(Cl)Cl)c3)on2)CC1` [Compound 540], the IC50 is under 10 µM.

On to `NC(Cc1ccccc1)C(=O)N1CCN(c2cccc(Cl)c2-c2cc(-c3cccc(NC(=O)C(Cl)Cl)c3)on2)CC1` (stereo not shown) [Compound 541], for which the IC50 is over 10 µM.

Regarding `Nc1cccc(Cl)c1-c1cc(-c2cccc(NC(=O)C(Cl)Cl)c2)on1` [Compound 542], the concentration for half-maximal inhibition (IC50) is under 10 µM.

With `O=C(NC1CCN(c2cccc(Cl)c2-c2cc(-c3cccc(NC(=O)C(Cl)Cl)c3)on2)CC1)c1ccco1` [Compound 543], the IC50 is under 10 µM.

In the case of `O=C(NC1CCN(c2cccc(Cl)c2-c2cc(-c3cccc(NC(=O)C(Cl)Cl)c3)on2)CC1)c1ccccn1` [Compound 544], the IC50 is under 10 µM.

As to `O=C(NC1CCN(c2cccc(Cl)c2-c2cc(-c3cccc(NC(=O)C(Cl)Cl)c3)on2)CC1)c1cccnc1` [Compound 545], the IC50 was under 10 µM.

For `CS(=O)(=O)NC1CCN(c2cccc(Cl)c2-c2cc(-c3cccc(NC(=O)C(Cl)Cl)c3)on2)CC1` [Compound 546], the IC50 is under 10 µM.

With `O=C(Nc1cccc(-c2cc(-c3c(Cl)cccc3N3CCC(NS(=O)(=O)c4ccccc4)CC3)no2)c1)C(Cl)Cl` [Compound 547], the IC50 is under 10 µM.

Take `O=C(Nc1ccccc1)NC1CCN(c2cccc(Cl)c2-c2cc(-c3cccc(NC(=O)C(Cl)Cl)c3)on2)CC1` [Compound 548]: the IC50 was under 10 µM.

Regarding `O=C(Nc1cccc(-c2cc(-c3c(Cl)cccc3N3CCN(Cc4ccccc4)CC3)no2)c1)C(Cl)Cl` [Compound 549], the IC50 was under 10 µM.

As for `O=C(Nc1cccc(-c2cc(-c3c(Cl)cccc3N3CCN(c4cccnc4)CC3)no2)c1)C(Cl)Cl` [Compound 550], the IC50 was under 10 µM.

As to `O=C(Nc1cccc(-c2cc(-c3c(Cl)cccc3N3CCN(C(=O)c4ccncc4)CC3)no2)c1)C(Cl)Cl` [Compound 552], the IC50 is under 10 µM.

For the compound `O=C(Nc1cccc(-c2cc(-c3c(Cl)cccc3N3CCN(C(=O)c4cccnc4)CC3)no2)c1)C(Cl)Cl` [Compound 553], the IC50 is under 10 µM.

For `O=C(Nc1cccc(-c2cc(-c3c(Cl)cccc3N3CCN(C(=O)c4cccs4)CC3)no2)c1)C(Cl)Cl` [Compound 554], the half-inhibitory concentration (IC50) was under 10 µM.

As for `O=C(Nc1cccc(-c2cc(-c3c(Cl)cccc3N3CCN(C(=O)c4cc5ccccc5[nH]4)CC3)no2)c1)C(Cl)Cl` [Compound 555], the 50% inhibitory concentration (IC50) is under 10 µM.

For `O=C(Nc1cccc(-c2cc(-c3c(Cl)cccc3N3CCN(C(=O)c4cnccn4)CC3)no2)c1)C(Cl)Cl` [Compound 556], the IC50 was under 10 µM.

For the compound `O=C(Nc1cccc(-c2cc(-c3c(Cl)cccc3N3CCN(C(=O)c4ccc(-c5ccccc5)cc4)CC3)no2)c1)C(Cl)Cl` [Compound 557], the IC50 was over 10 µM.

For the compound `O=C(Nc1cccc(-c2cc(-c3c(Cl)cccc3N3CCN(C(=O)Cc4cccnc4)CC3)no2)c1)C(Cl)Cl` [Compound 558], the IC50 is under 10 µM.

With `O=C(Nc1cccc(-c2cc(-c3c(Cl)cccc3Oc3cccnc3)no2)c1)C(Cl)Cl` [Compound 559], the IC50 is under 10 µM.

For `CC(=O)Nc1cccc(Cl)c1-c1cc(-c2cccc(NC(=O)C(Cl)Cl)c2)on1` [Compound 560], the IC50 was under 10 µM.

Turning to `CS(=O)(=O)Nc1cccc(Cl)c1-c1cc(-c2cccc(NC(=O)C(Cl)Cl)c2)on1` [Compound 561], the IC50 was under 10 µM.

For the compound `O=C(Nc1cccc(Cl)c1-c1cc(-c2cccc(NC(=O)C(Cl)Cl)c2)on1)c1cccnc1` [Compound 562], the IC50 was under 10 µM.

On to `CN(C(=O)C(Cl)Cl)c1cccc(-c2cc(-c3c(Cl)cccc3N=[N+]=[N-])no2)c1` [Compound 563], for which the IC50 was under 10 µM.

Turning to `CN(C(=O)C(Cl)Cl)c1cccc(-c2cc(-c3c(N)cccc3Cl)no2)c1` [Compound 564], the IC50 is over 10 µM.

For the compound `CC(=O)NC1CCN(c2cccc(Cl)c2-c2cc(-c3cccc(NC(=O)C(Cl)Cl)c3)on2)C1` (stereo not shown) [Compound 565], the IC50 was under 10 µM.

On to `O=C(Nc1cccc(-c2cc(-c3c(Cl)cccc3N3CCN(C(=O)C(F)(F)F)CC3)no2)c1)C(Cl)Cl` [Compound 566], for which the IC50 is under 10 µM.

With `O=C(Nc1cccc(-c2cc(-c3c(Cl)cccc3N3CCN(S(=O)(=O)C(F)(F)F)CC3)no2)c1)C(Cl)Cl` [Compound 567], the concentration for half-maximal inhibition (IC50) is under 10 µM.

Consider `CC(C)(C)OC(=O)N1CCC(Oc2cccc(Cl)c2-c2cc(-c3cccc(NC(=O)C(Cl)Cl)c3)on2)CC1` [Compound 568], for which the IC50 was under 10 µM.

As to `O=C(Nc1cccc(-c2cc(-c3c(Cl)cccc3OC3CCNCC3)no2)c1)C(Cl)Cl` [Compound 569], the IC50 was under 10 µM.

For the compound `CC(C)(C)OC(=O)N1CCCC(Oc2cccc(Cl)c2-c2cc(-c3cccc(NC(=O)C(Cl)Cl)c3)on2)C1` (stereo not shown) [Compound 570], the IC50 was under 10 µM.

As for `O=C(Nc1cccc(-c2cc(-c3c(Cl)cccc3OC3CCCNC3)no2)c1)C(Cl)Cl` (stereo not shown) [Compound 571], the IC50 is under 10 µM.

Turning to `O=C(NC1CCN(c2cccc(Cl)c2-c2cc(-c3cccc(NC(=O)C(Cl)Cl)c3)on2)C1)c1ccccn1` (stereo not shown) [Compound 572], the IC50 was under 10 µM.

`CS(=O)(=O)NC1CCN(c2cccc(Cl)c2-c2cc(-c3cccc(NC(=O)C(Cl)Cl)c3)on2)C1` (stereo not shown) [Compound 573]: the IC50 was under 10 µM.

Consider `CN(C)C(=O)NC1CCN(c2cccc(Cl)c2-c2cc(-c3cccc(NC(=O)C(Cl)Cl)c3)on2)C1` (stereo not shown) [Compound 574], for which the IC50 is under 10 µM.

Turning to `CCNC(=O)NC1CCN(c2cccc(Cl)c2-c2cc(-c3cccc(NC(=O)C(Cl)Cl)c3)on2)C1` (stereo not shown) [Compound 575], the IC50 is under 10 µM.

`CS(=O)(=O)N1CCC(Oc2cccc(Cl)c2-c2cc(-c3cccc(NC(=O)C(Cl)Cl)c3)on2)CC1` [Compound 576]: the IC50 is under 10 µM.

As for `CC(=O)N1CCC(Oc2cccc(Cl)c2-c2cc(-c3cccc(NC(=O)C(Cl)Cl)c3)on2)CC1` [Compound 577], the IC50 was under 10 µM.

For `CCNC(=O)N1CCC(Oc2cccc(Cl)c2-c2cc(-c3cccc(NC(=O)C(Cl)Cl)c3)on2)CC1` [Compound 578], the half-inhibitory concentration (IC50) is under 10 µM.

As to `CCNC(=O)NC1CCN(c2cccc(Cl)c2-c2cc(-c3cccc(NC(=O)C(Cl)Cl)c3)on2)CC1` [Compound 579], the IC50 is under 10 µM.

`CN(c1cccc(Cl)c1-c1cc(-c2cccc(NC(=O)C(Cl)Cl)c2)on1)C1CCN(C(=O)OC(C)(C)C)CC1` [Compound 580]: the IC50 is under 10 µM.

Consider `CN(c1cccc(Cl)c1-c1cc(-c2cccc(NC(=O)C(Cl)Cl)c2)on1)C1CCNCC1` [Compound 581], for which the IC50 is under 10 µM.

Regarding `CC(=O)N1CCC(N(C)c2cccc(Cl)c2-c2cc(-c3cccc(NC(=O)C(Cl)Cl)c3)on2)CC1` [Compound 582], the IC50 was under 10 µM.

On to `CN(c1cccc(Cl)c1-c1cc(-c2cccc(NC(=O)C(Cl)Cl)c2)on1)C1CCN(S(C)(=O)=O)CC1` [Compound 583], for which the IC50 is under 10 µM.
